{"source": "paper PMC9271885", "about": "(eBioMedicine, 2022)", "key": {"SARS-CoV-2 [1]": {"tested_on": "SARS-CoV-2", "settings": "Vero E6 cells at 48 h post-infection; read-out: 50% effective concentration (EC50); cited from earlier work"}, "SARS-CoV-2 [2]": {"tested_on": "SARS-CoV-2", "experiment": "microbe, parasite or virus in culture", "assay_type": "cell-based", "settings": "Severe acute respiratory syndrome coronavirus 2, 48 h; Caco-2 cells, viral RNA, 2 days incubation"}, "SARS-CoV-2 [3]": {"tested_on": "SARS-CoV-2", "assay_type": "cell-based", "settings": "bronchial human airway epithelium"}, "SARS-CoV-2 [4]": {"tested_on": "SARS-CoV-2", "experiment": "microbe, parasite or virus in culture", "assay_type": "cell-based"}, "in vitro": {"experiment": "in vitro", "experimental": "(§1) One day prior to infection, 96-well culture plates were seeded with 5×10^4 Vero E6 or Caco-2 cells in 100µL assay medium per well (containing 2.5% FCS). […] After 15min, a preset amount of virus diluted in 25µL of assay medium was added to the wells. This quantity of virus was calibrated so that the viral replication was still in the exponential growth phase for the readout, as previously described, [28], [29] which correspond here to 150 TCID50 per well. Four “cell control” wells were supplemented with 50µL of assay medium without any compounds or virus. On each culture plate, a positive control compound (Remdesivir, BLDpharm) was added in duplicate with eight 2-fold serial dilutions (0.16µM to 20µM). Plates were incubated for 2 days at 37°C prior to quantification of the viral genome by real-time RT-PCR as described below. For the determination of the 50% cytotoxic concentrations (CC50; compound concentration required to reduce by 50% cell viability), the same culture conditions were used, without addition of the virus, and cell viability was measured using CellTiter Blue® (Promega) following manufacturer's instructions. EC50, EC90 and CC50 were determined using logarithmic interpolation as previously described.[28] The selectivity index of the compounds was calculated as the ratio of the CC50 over the EC50."}, "[5]": {"experiment": "Population pharmacokinetic modelling and simulation of TIZ in hamster (LC-MS/MS, NONMEM)", "settings": "in vivo", "experimental": "At each time point, approximate 80µl of blood were collected from the submandibular vein or the saphenous vein of hamsters. All samples were transferred into commercial K2-EDTA tubes, placed on ice until processed for plasma extraction by centrifugation and stored at −70°C before analysis. A LC-MS/MS-AI Triple Quad 5500 was used to determine TIZ concentrations. The mobile phase was a gradient of 0.1% formic acid (FA) in water and 0.1% of FA in acetonitrile (ACN), the column was an ACQUITY UPLC HSS T3 1.8 μm 2.1 × 50mm. For mass spectrometry a positive electrospray ionization was used, and a selected reaction monitoring was set to select TIZ: [M+H]+m/z: 266.0 / 121.2 and dexamethasone: [M+H]+m/z: 393.0 / 373.1 as internal standard.\nPharmacokinetic profiles of TIZ in hamster were analyzed using a nonlinear mixed-effects modelling approach. The population pharmacokinetics analysis was performed using NONMEM® version 7.4. The final pharmacokinetic model was established by evaluating one-, two-, and three-compartment disposition models, as well as several different absorption models (i.e. first-order absorption, first-order absorption with lag time, and transit absorption models). The inter-individual variabilities of pharmacokinetic parameters were implemented as a log-normal distribution and the residual unexplained variability was modelled as an exponential error."}, "SARS-CoV-2 [6]": {"tested_on": "SARS-CoV-2", "experiment": "Lung histopathological changes in infected hamsters (cumulative score, grade of severity)", "assay_type": "in vivo, Syrian hamsters", "experimental": "The anatomo-histological study was implemented as previously described.[24]^,[26] Briefly, lungs were collected after intratracheal instillation of 4% (w/v) formaldehyde solution, and then fixed 72h at room temperature with a 4% (w/v) formaldehyde solution before being embedded in paraffin. Tissue sections of 3.5µm were stained with hematoxylin-eosin (H&E) and blindly analyzed by a certified veterinary pathologist. Microscopic examination was done using a Nikon Eclipse E400 microscope. Different anatomic compartments were examined (1) for bronchial and alveolar walls, a score of 0 to 4 was assigned based on severity of inflammation; (2) regarding alveoli, a score of 0 to 2 was assigned based on presence and severity of hemorrhagic necrosis; (3) regarding vessel changes (leucocytic accumulation in vascular wall or in endothelial compartment), absence or presence was scored 0 or 1 respectively. A cumulative score was then calculated and assigned to a grade of severity (see Supplementary Table 4).\nGroups of 4 hamsters, intranasally infected with 10^4 TCID50 of SARS-CoV-2, were orally treated at a dose of 500mg/kg/day BID for 4 days (0, 1, 2 and 3 dpi) (Figure 4a). Untreated hamsters (group of 4 animals) received the suspension vehicle BID. Animals were sacrificed at 5 dpi and a cumulative score from 0 to 10 (taking into account severity of inflammation, alveolar hemorrhagic necrosis and vessel lesions) was calculated and then assigned to a grade of severity (0=normal; 1=mild; 2=moderate; 3=marked and 4=severe; details in Supplementary Data 4)."}, "SARS-CoV-2 [7]": {"tested_on": "SARS-CoV-2", "experiment": "Hamster model of SARS-CoV-2 infection, intranasal NTZ treatment (lung, plasma, nasal turbinates)", "assay_type": "in vivo, Syrian hamsters", "parameters": "Lung Infectious titers / Lung Viral RNA yields / Plasmatic viral RNA yields / Nasal Turbinates Infectious titers / Nasal Turbinates Viral RNA yields: unit not given here"}, "[8]": {"settings": "cited from earlier work"}, "Vero E6 cells": {"tested_on": "Vero E6 cells", "experiment": "in vitro", "settings": "African green monkey, 2 days", "experimental": "as §1"}, "[9]": {"settings": "in vivo, cited from earlier work"}, "[10]": {"settings": "Severe acute respiratory syndrome coronavirus 2, Vero C1008, 48 h, Vero E6 cells, viral RNA, 2 days incubation"}, "[11]": {"settings": "Severe acute respiratory syndrome coronavirus 2, Vero C1008, 48 h, Vero E6 cells, viral RNA, 2 days incubation, read-out: EC50"}, "[12]": {"settings": "nitazoxanide 500mg/kg/day per os BID, day of sacrifice 5, individual animals"}, "[13]": {"settings": "NTZ emulsion 2.8mg/kg/day TID intranasal, 3 dpi, first experiment"}, "[14]": {"settings": "Nitazoxanide IN 2.8mg/kg/day TID, inoculum 104 TCID50, sacrifice day 3, Figure 5, individual animals"}, "[15]": {"settings": "Nitazoxanide IN 2.8mg/kg/day TID, inoculum 104 TCID50, sacrifice day 3, Figure SF 2, individual animals"}}, "note": "“And” between values parts separate entries of the source, which are not always exact repeats. Identical values can stand only once. Like-named read-outs stand apart in the source and are kept apart here."}
{"smiles": "CC(=O)Oc1ccccc1C(=O)Nc1ncc([N+](=O)[O-])s1", "note": "[NTZ, Nitazoxanide]", "values": [{"measurement": "EC50", "setting": "SARS-CoV-2 [1]", "value": 2.12, "unit": "µM"}, {"measurement": "EC90", "setting": "SARS-CoV-2 [2]", "value": 1.75, "unit": "µM"}, {"measurement": "effective NTZ concentrations ex vivo", "setting": "SARS-CoV-2 [3]", "value": 5, "unit": "µM"}, {"measurement": "effective NTZ concentrations ex vivo", "setting": "SARS-CoV-2 [3]; conversion of 5µM", "value": 1.54, "unit": "µg/mL"}, {"measurement": "EC90", "setting": "SARS-CoV-2 [4]; [10]", "value": 10.3, "unit": "µM"}, {"measurement": "EC50", "setting": "SARS-CoV-2 [4]; [11]", "value": 3.19, "unit": "µM"}, {"measurement": "EC50", "setting": "SARS-CoV-2 [4]; Vero E6 cells, viral RNA, 2 days incubation, read-out: EC50", "value": "< 5", "unit": "µM"}, {"measurement": "CC50 at 2 days", "setting": "in vitro; African green monkey, CC50, Vero E6 cells, no virus", "value": "> 60", "unit": "µM"}, {"measurement": "CC50 at 2 days", "setting": "in vitro; human", "value": 9.15, "unit": "µM"}, {"measurement": "V/F volume of distribution of the central compartment, population estimate (%RSE)", "setting": "[5]", "value": "0.128 (48.3) L"}, {"measurement": "CL/F oral clearance, population estimate (%RSE)", "setting": "[5]; po", "value": "0.651 (11.9) L/h"}, {"measurement": "histopathological cumulative scores in lungs vs untreated", "setting": "SARS-CoV-2 [6]; NTZ 500mg/kg/day BID oral for 4 days, sacrificed at 5 dpi", "value": "no significant difference"}, {"measurement": "Histologic scores Bronchitis", "setting": "SARS-CoV-2 [6]; [12]", "value": "4 and 3"}, {"measurement": "Histologic scores Endothelitis / Vasculitis", "setting": "SARS-CoV-2 [6]; [12]", "value": 1}, {"measurement": "Histologic scores Hemorrhagic necrosis", "setting": "SARS-CoV-2 [6]; [12]", "value": "0 and 1"}, {"measurement": "Histologic scores Interstitial pneumonia", "setting": "SARS-CoV-2 [6]; [12]", "value": "4 and 3"}, {"measurement": "Histologic scores Total score", "setting": "SARS-CoV-2 [6]; [12]", "value": "9 and 10 and 8 and 7"}, {"measurement": "Histologic scores Grade", "setting": "SARS-CoV-2 [6]; nitazoxanide 500mg/kg/day per os BID, day of sacrifice 5, individual animals, grade printed as number", "value": "4 and 3"}, {"measurement": "viral replication in clarified lung homogenates, plasma or nasal turbinates vs untreated", "setting": "SARS-CoV-2 [7]; NTZ 2.8mg/kg/day TID intranasal, repeated independent experiment", "value": "no significant differences"}, {"measurement": "infectious titers in clarified lung homogenates vs untreated", "setting": "SARS-CoV-2 [7]; [13]", "value": "significant increase"}, {"measurement": "infectious titers in nasal turbinates vs untreated", "setting": "SARS-CoV-2 [7]; [13]", "value": "no significant differences"}, {"measurement": "viral RNA load in nasal turbinates vs untreated", "setting": "SARS-CoV-2 [7]; [13]", "value": "significant reduction"}, {"measurement": "viral RNA yields in clarified lung homogenates vs untreated", "setting": "SARS-CoV-2 [7]; [13]", "value": "No significant differences"}, {"measurement": "viral RNA yields in plasma vs untreated", "setting": "SARS-CoV-2 [7]; [13]", "value": "No significant differences"}, {"measurement": "Lung Infectious titers", "setting": "SARS-CoV-2 [7]; [14]", "value": "7.738 and 7.565 and 7.260 and 7.126 and 7.436 and 7.154"}, {"measurement": "Lung Viral RNA yields", "setting": "SARS-CoV-2 [7]; [14]", "value": "8.897 and 8.809 and 8.599"}, {"measurement": "Nasal Turbinates Infectious titers", "setting": "SARS-CoV-2 [7]; [14]", "value": "2.483 and 2.551 and 3.472 and 4.082 and 3.115 and 4.229"}, {"measurement": "Nasal Turbinates Viral RNA yields", "setting": "SARS-CoV-2 [7]; [14]", "value": "4.363 and 4.565 and 5.134 and 5.523 and 5.262 and 5.603"}, {"measurement": "Plasmatic viral RNA yields", "setting": "SARS-CoV-2 [7]; [14]", "value": "3.551 and 4.595 and 4.938 and 4.386 and 5.492 and 4.672"}, {"measurement": "Lung Infectious titers", "setting": "SARS-CoV-2 [7]; [15]", "value": "6.420 and 6.814 and 6.658 and 6.401 and 6.100 and 6.859"}, {"measurement": "Lung Viral RNA yields", "setting": "SARS-CoV-2 [7]; [15]", "value": "7.102 and 7.087"}, {"measurement": "Nasal Turbinates Infectious titers", "setting": "SARS-CoV-2 [7]; [15]", "value": "3.220 and 2.494 and 2.987 and 4.228 and 2.922 and 3.399"}, {"measurement": "Nasal Turbinates Viral RNA yields", "setting": "SARS-CoV-2 [7]; [15]", "value": "5.240 and 5.486 and 5.403 and 6.486 and 5.764 and 5.350"}]}
{"smiles": "O=C(Nc1ncc([N+](=O)[O-])s1)c1ccccc1O", "note": "[TIZ, tizoxanide]", "values": [{"measurement": "bound to plasma proteins", "setting": "[8]", "value": 99, "unit": "%"}, {"measurement": "EC90", "setting": "SARS-CoV-2 [4]; [10]", "value": 9.27, "unit": "µM"}, {"measurement": "EC50", "setting": "SARS-CoV-2 [4]; [11]", "value": 7.48, "unit": "µM"}, {"measurement": "EC50", "setting": "SARS-CoV-2 [4]; Severe acute respiratory syndrome coronavirus 2, Vero C1008, read-out: EC50 expressed in µg/mL", "value": 1.98, "unit": "µg/mL"}, {"measurement": "Selectivity Index (SI=CC50/EC50)", "setting": "SARS-CoV-2 [4]; Vero E6 cells", "value": "higher than 13.3"}, {"measurement": "CC50 at 2 days", "setting": "in vitro; African green monkey, CC50", "value": "> 60", "unit": "µM"}, {"measurement": "CC50", "setting": "Vero E6 cells", "value": "> 100", "unit": "µM"}, {"measurement": "Tmax", "setting": "[5]; Syrian, po", "value": 16.6, "unit": "min"}, {"measurement": "half-life", "setting": "[5]; Syrian, po", "value": 48, "unit": "min"}, {"measurement": "Tmax", "setting": "[9]; human", "value": "approximately 2 hours"}, {"measurement": "apparent clearance", "setting": "[9]", "value": 19.34, "unit": "L/h"}, {"measurement": "volume of distribution", "setting": "[9]", "value": 38.68, "unit": "L"}]}
